Measurements reported in PMC5063977 (The Journal of Biological Chemistry, 2016).

Key:
[1] = biological target: T1, RAMP2-CLR (AM1 receptor) (Homo sapiens, UniProt O60895+Q16602); assay: S. cerevisiae growth assay, GPA1/Gαq chimera, RAMP2 + CLR; assay type: cell-based; conditions: percentage of yeast strain MMY11 (lacking GPA1); 24-h; mean ± S.E., n = 6
T1 construct: FLAG; expressed in transfected cells; host or cells: HEK-293 or HEK-293S cells, transient transfection, 1:1 RAMP:CLR
Protocol: FIGURE 7. […] Reporter gene activity was determined following 24-h stimulation. All data are expressed as percentage of the maximum response observed in yeast strain MMY11 and are means ± S.E. of n individual data sets. D, Bar chart showing the efficacy of each ligand for each RAMP-CLR combination at the Gαq chimera determined via application of the operational model of receptor agonism (Ref. [34] and Table 1). Data were determined as statistically different from the cognate ligand for each receptor (***, p < 0.001; ****, p < 0.0001) using one-way ANOVA with Bonferroni's post-test. E, signaling bias plots were calculated as ΔΔ(τ/Ka) values on a logarithmic scale for each ligand and for each chimera G protein for the three individual RAMP-CLR complexes.
General yeast procedures were performed as described previously ([22], [24]). […] Receptor signaling was measured using the yeast growth assay as described previously ([24]). […] A fluorescein signal was detected as an increase in fluorescence (excitation wavelength = 485 nm, emission wavelength = 535 nm) as a measure of growth. Different concentrations of ligand (0.01 nM–100 μM) were assayed using 96-well plates, and fluorescence was detected using a Tecan Infinite M200 microplate reader (Tecan Ultra Evolution, Reading, UK) or a Mithras LB 940 microplate reader (Berthold Technologies, Harpenden, UK) for 20 h. […]

[2] = biological target: T2, RAMP1-CLR (CGRP receptor) (Homo sapiens, UniProt O60894+Q16602); assay: S. cerevisiae growth assay, GPA1/Gαs chimera, RAMP1 + CLR; assay type: cell-based; conditions: percentage of yeast strain MMY11 (lacking GPA1); 20 h; mean ± S.E., n = 6
T2 construct: FLAG; expressed in transfected cells; host or cells: HEK-293 or HEK-293S cells, transient transfection, 1:1 RAMP:CLR
Protocol: FIGURE 1. […] Reporter gene activity was determined following 20 h of stimulation with each ligand. Data are expressed as a percentage of the maximum response observed in yeast strain MMY11 (lacking GPA1) and are means ± S.E. of n individual data sets. […] Data were determined as statistically different from the cognate ligand for each receptor (*, p < 0.05; **, p < 0.01; ***, p < 0.001) using a one-way ANOVA with Bonferroni's post-test.
General yeast procedures were performed as described previously ([22], [24]). The human CLR was introduced into yeast cells under the control of the PGK promoter using a plasmid containing ura3 (pDT-PGK). […] Receptor signaling was measured using the yeast growth assay as described previously ([24]). […] A fluorescein signal was detected as an increase in fluorescence (excitation wavelength = 485 nm, emission wavelength = 535 nm) as a measure of growth. Different concentrations of ligand (0.01 nM–100 μM) were assayed using 96-well plates, and fluorescence was detected using a Tecan Infinite M200 microplate reader (Tecan Ultra Evolution, Reading, UK) or a Mithras LB 940 microplate reader (Berthold Technologies, Harpenden, UK) for 20 h.
Data analysis for cAMP assays was performed in GraphPad Prism 6.0f (San Diego, CA). […] To quantitate the ligand-dependent response in the yeast system, a strain lacking GPA1 (MMY11), grown in rich medium, was used as a standard ([72]). […]

T1 sequence (Q16602 23-461): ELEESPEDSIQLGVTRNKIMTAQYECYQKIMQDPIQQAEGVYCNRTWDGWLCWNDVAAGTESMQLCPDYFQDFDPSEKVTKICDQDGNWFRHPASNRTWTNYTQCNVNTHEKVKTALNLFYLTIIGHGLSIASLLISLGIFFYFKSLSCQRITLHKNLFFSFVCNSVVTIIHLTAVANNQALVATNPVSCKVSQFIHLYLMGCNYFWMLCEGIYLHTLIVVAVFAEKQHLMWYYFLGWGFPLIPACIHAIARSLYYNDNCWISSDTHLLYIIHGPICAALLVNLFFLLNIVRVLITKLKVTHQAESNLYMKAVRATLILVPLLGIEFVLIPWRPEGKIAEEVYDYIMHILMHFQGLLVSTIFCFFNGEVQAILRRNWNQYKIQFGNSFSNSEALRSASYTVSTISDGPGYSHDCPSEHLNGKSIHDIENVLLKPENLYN
T1 sequence (O60895 43-175): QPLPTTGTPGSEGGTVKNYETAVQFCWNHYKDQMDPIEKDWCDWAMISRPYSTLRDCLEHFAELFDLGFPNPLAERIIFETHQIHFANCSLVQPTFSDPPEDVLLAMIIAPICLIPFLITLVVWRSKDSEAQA
T2 sequence (Q16602 23-461): as the sequence (Q16602 23-461) above
T2 sequence (O60894 27-148): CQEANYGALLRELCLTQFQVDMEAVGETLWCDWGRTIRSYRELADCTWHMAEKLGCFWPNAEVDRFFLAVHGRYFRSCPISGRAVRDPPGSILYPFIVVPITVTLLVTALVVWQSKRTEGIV

In the case of CSCC[C@H](NC(=O)[C@H](CC(C)C)NC(=O)[C@H](CCC(N)=O)NC(=O)[C@H](Cc1c[nH]c2ccccc12)NC(=O)[C@H](CC(C)C)NC(=O)[C@H](CCCNC(=N)N)NC(=O)[C@H](Cc1c[nH]cn1)NC(=O)[C@H](CO)NC(=O)[C@H](CC(C)C)NC(=O)[C@H](CC(N)=O)NC(=O)[C@H](CCC(N)=O)NC(=O)[C@@H](NC(=O)[C@H](CCC(N)=O)NC(=O)[C@@H]1CSSC[C@H](NC(=O)CNC(=O)[C@@H](NC(=O)[C@H](CCCNC(=N)N)NC(=O)[C@H](CC(C)C)NC(=O)[C@H](CC(C)C)NC(=O)[C@H](CCC(N)=O)NC(=O)[C@H](C)NC(=O)[C@H](CCC(N)=O)NC(=O)[C@@H](N)[C@@H](C)O)C(C)C)C(=O)N[C@@H](C(C)C)C(=O)N[C@@H](CC(C)C)C(=O)NCC(=O)N[C@@H]([C@@H](C)O)C(=O)N1)C(C)C)C(=O)NCC(=O)N1CCC[C@H]1C(=O)N[C@@H](C)C(=O)NCC(=O)N[C@@H](CCCNC(=N)N)C(=O)N[C@@H](CCC(N)=O)C(=O)N[C@@H](CC(=O)O)C(=O)N[C@@H](CO)C(=O)N[C@@H](C)C(=O)N1CCC[C@H]1C(=O)N[C@H](C(=O)N[C@@H](CC(=O)O)C(=O)N1CCC[C@H]1C(=O)N[C@@H](CO)C(=O)N[C@@H](CO)C(=O)N1CCC[C@H]1C(=O)N[C@@H](Cc1c[nH]cn1)C(=O)N[C@@H](CO)C(=O)N[C@@H](Cc1ccc(O)cc1)C(N)=O)C(C)C [AM2, adrenomedullin 2], the Emax [1] is reported as 11.3 ± 1.3%.
For CC[C@H](C)[C@H](NC(=O)[C@H](CCC(N)=O)NC(=O)[C@H](Cc1c[nH]cn1)NC(=O)[C@H](C)NC(=O)[C@H](CC(C)C)NC(=O)[C@H](CCCCN)NC(=O)[C@H](CCC(N)=O)NC(=O)[C@@H](NC(=O)[C@@H](NC(=O)[C@@H]1CSSC[C@H](NC(=O)CNC(=O)[C@H](Cc2ccccc2)NC(=O)[C@H](CO)NC(=O)[C@H](CCCNC(=N)N)NC(=O)[C@H](CC(C)C)NC(=O)CNC(=O)[C@H](CCC(N)=O)NC(=O)[C@H](Cc2ccccc2)NC(=O)[C@H](CC(N)=O)NC(=O)[C@H](CC(N)=O)NC(=O)[C@H](CCSC)NC(=O)[C@H](CO)NC(=O)[C@H](CCC(N)=O)NC(=O)[C@H](CCCNC(=N)N)NC(=O)[C@@H](N)Cc2ccc(O)cc2)C(=O)N[C@@H](CCCNC(=N)N)C(=O)N[C@@H](Cc2ccccc2)C(=O)NCC(=O)N[C@@H]([C@@H](C)O)C(=O)N1)[C@@H](C)O)C(C)C)C(=O)N[C@@H](Cc1ccc(O)cc1)C(=O)N[C@@H](CCC(N)=O)C(=O)N[C@@H](Cc1ccccc1)C(=O)N[C@H](C(=O)N[C@@H](CC(=O)O)C(=O)N[C@@H](CCCCN)C(=O)N[C@@H](CC(=O)O)C(=O)N[C@@H](CCCCN)C(=O)N[C@@H](CC(=O)O)C(=O)N[C@@H](CC(N)=O)C(=O)N[C@H](C(=O)N[C@@H](C)C(=O)N1CCC[C@H]1C(=O)N[C@@H](CCCNC(=N)N)C(=O)N[C@@H](CO)C(=O)N[C@@H](CCCCN)C(=O)N[C@H](C(=O)N[C@@H](CO)C(=O)N1CCC[C@H]1C(=O)N[C@@H](CCC(N)=O)C(=O)NCC(=O)N[C@@H](Cc1ccc(O)cc1)C(N)=O)[C@@H](C)CC)C(C)C)[C@@H](C)O [AM, adrenomedullin], the Emax [2] was 20.4 ± 2.8%.
